From patent US10407440B2, “Therapeutic agent for motor disorders” (KYOWA HAKKO KIRIN CO., LTD., priority 2009, dated 2019)
Like-named read-outs stand apart in the source and are kept apart here.

Assays:
[1] = molecular target: T1, human adenosine A1 receptor (Homo sapiens, UniProt P30542); test: Adenosine A1 receptor binding test (3H-DPCPX binding); conditions: read-out: Inhibitory rate for human adenosine A1 receptor binding (3H-DPCPX binding)
T1 construct: host or cells: CHO cells (membranes)
T1 sequence (P30542 1-326): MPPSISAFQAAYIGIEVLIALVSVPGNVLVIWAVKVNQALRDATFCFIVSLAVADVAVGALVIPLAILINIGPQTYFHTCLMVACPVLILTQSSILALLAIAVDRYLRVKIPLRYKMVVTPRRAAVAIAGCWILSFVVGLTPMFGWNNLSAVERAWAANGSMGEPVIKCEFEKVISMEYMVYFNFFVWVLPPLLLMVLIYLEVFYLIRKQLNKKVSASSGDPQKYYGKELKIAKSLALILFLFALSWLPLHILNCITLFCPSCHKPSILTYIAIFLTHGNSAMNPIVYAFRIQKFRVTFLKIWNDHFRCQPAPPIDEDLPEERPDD
Description: Specifically, for example, human A1 receptor-expressing CHO cell membranes are used, and, as the labeled compound, for example, tritium-labeled DPCPX (1,3-dipropyl-8-cyclopentylxanthine) is used. The amount of non-specific binding can be determined by measuring the ^3H-DPCPX bound radioactivity in the presence of, for example, 100 μmol/L of R(−)-PIA((−)-N^6-2-phenylisopropyl adenosine).

[2] = molecular target: T2, human adenosine A2A receptor (Homo sapiens, UniProt P29274); test: Adenosine A2A receptor binding test (3H-CGS21680 binding); conditions: compound at 100 nmol/L; Table 2, measured by Ricerca Biosciences, LLC; read-out: Inhibitory rate for human adenosine A2A receptor binding (3H-CGS21680 binding)
T2 construct: host or cells: HEK-293 cells (membranes)
T2 sequence (P29274 whole entry): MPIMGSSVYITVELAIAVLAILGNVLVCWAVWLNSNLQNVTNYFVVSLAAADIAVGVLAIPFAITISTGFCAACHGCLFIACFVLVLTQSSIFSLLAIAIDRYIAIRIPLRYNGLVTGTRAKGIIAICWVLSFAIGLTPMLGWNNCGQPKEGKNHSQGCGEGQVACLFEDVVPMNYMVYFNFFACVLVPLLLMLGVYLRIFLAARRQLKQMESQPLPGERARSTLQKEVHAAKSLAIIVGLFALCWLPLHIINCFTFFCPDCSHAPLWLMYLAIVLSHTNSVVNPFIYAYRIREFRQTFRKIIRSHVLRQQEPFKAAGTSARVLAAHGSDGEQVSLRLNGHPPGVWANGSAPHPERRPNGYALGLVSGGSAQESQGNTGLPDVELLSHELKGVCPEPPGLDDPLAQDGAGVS
Description: Specifically, for example, human recombinant receptors are expressed in HEK-293 cells.
The inhibitory rate can be calculated by the following equation.

[3] = test system: MPTP-treated common marmoset; test: Test Example 3: combination with L-DOPA in MPTP-treated common marmoset, motor disability score; type: in vivo
Description: Parkinson's disease is a disease based on the progressive degeneration and loss of dopaminergic neuron in substantia nigra-striatum. In primates, a treatment with MPTP, which is a dopamine neurotoxin, causes selective degeneration and loss of dopaminergic neuron in substantia nigra-striatum and induces symptoms of akinesia, muscle rigidity and the like. The primates treated with MPTP are known as the model of Parkinson's disease [Proceedings of the National Academy of Science USA, vol. 80, p. 4546 (1983)]. In addition, common marmoset belongs to Haplorhini and is known to show the symptoms of Parkinson's disease by MPTP, like other Haplorhini [Neuroscience Letter, vol. 57, p. 37 (1985)]. […] The parkinsonian symptoms were judged using the index described in a previous report [Annales of Neurology, vol. 43, p. 507 (1998)]. All compounds were used as a suspension in 0.5% MC400, 10% aqueous sucrose solution. The subject animal was placed in an observation cage (with locomotor activity measuring apparatus) one day before the test compound administration for preconditioning to the environment. The symptoms of Parkinson's disease were continuously monitored through one-way mirror and disability score was scored each 10 min for 6 hr.
The locomotor activity was automatically measured using a computer by a measuring apparatus with a photocell.

[4] = test system: MPTP-treated common marmoset that developed motor complication; test: Test Example 4: combination with L-DOPA in MPTP-treated common marmoset that developed motor complication; type: in vivo; conditions: 1 mg/kg compound combined with L-DOPA 2.5 mg/kg, gavage
Description: 10 mg/kg of L-DOPA (containing 2.5 mg/kg of benserazide hydrochloride) was administered by gavage to common marmoset that developed chronic parkinsonian symptoms by treatment with MPTP by the method described in Test Example 3 (MPTP-treated marmoset) twice a day at about 6 hr intervals. L-DOPA was repeatedly administered for more than 3 weeks to induction of motor complication (dyskinesia symptom, wearing-off phenomenon, on-off fluctuation and the like) in MPTP-treated marmoset in addition to parkinsonian symptoms, and the marmoset was used for the test. […] The locomotor activity was automatically measured using a computer by a measuring apparatus with a photocell. […] The subject animal was placed in an observation cage (with locomotor activity measuring apparatus) one day before the test compound administration for preconditioning to the environment. The symptoms of Parkinson's disease were continuously monitored through one-way mirror and disability score was scored each 10 min for 6 hr.

[5] = compound at 100 nmol/L, Table 2, measured by Ricerca Biosciences, LLC

Row | Compound | inhibition at 0.1 µM [1, 5] | inhibition at 0.1 µM [2] | other results
1 | O=C(Nc1nc(-c2ccoc2)c(C(=O)C2CCOCC2)s1)c1cnc2c(c1)CCC2 [(IAA), N-[4-(3-Furyl)-5-(tetrahydropyran-4-carbonyl)thiazol-2-yl]-6,7-dihydro-5H-cyclopenta[b]pyridine-3-carboxamide] | 9% | 98% | –
2 | C=Cc1ccc(C(=O)Nc2nc(-c3ccco3)c(C(=O)C3CCOCC3)s2)cn1 [(IE), N-[4-(2-Furyl)-5-(tetrahydropyran-4-carbonyl)thiazol-2-yl]-6-vinylpyridine-3-carboxamide] | 33% | 93% | –
3 | O=C(Cc1cccnc1)Nc1nc(-c2ccco2)c(C(=O)C2CCOCC2)s1 [(IF), N-[4-(2-Furyl)-5-(tetrahydropyran-4-carbonyl)thiazol-2-yl]-2-(pyridin-3-yl)acetamide] | 50% | 107% | –
4 | O=C(Nc1nc(-c2ccco2)c(C(=O)C2CCOCC2)s1)c1ccc[nH]1 [(IG), N-[4-(2-Furyl)-5-(tetrahydropyran-4-carbonyl)thiazol-2-yl]-1H-pyrrole-2-carboxamide] | 91% | 102% | –
5 | O=C(Nc1nc(-c2ccco2)c(C(=O)C2CCOCC2)s1)c1cccc2[nH]ccc12 [(IH), N-[4-(2-Furyl)-5-(tetrahydropyran-4-carbonyl)thiazol-2-yl]-1H-indole-4-carboxamide] | 67% | 98% | –
6 | O=C(Nc1nc(-c2ccco2)c(C(=O)C2CCOCC2)s1)c1ccnc(CN2CCOCC2)c1 [(II), N-[4-(2-Furyl)-5-(tetrahydropyran-4-carbonyl)thiazol-2-yl]-2-(morpholin-4-ylmethyl)pyridine-4-carboxamide] | 19% | 85% | –
7 | COCc1cc(C(=O)Nc2nc(-c3ccco3)c(C(=O)C3CCOCC3)s2)ccn1 [(IJ), N-[4-(2-Furyl)-5-(tetrahydropyran-4-carbonyl)thiazol-2-yl]-2-methoxymethylpyridine-4-carboxamide] | 21% | 93% | –
8 | CCOCc1cc(C(=O)Nc2nc(-c3ccco3)c(C(=O)C3CCOCC3)s2)ccn1 [(IK), 2-Ethoxymethyl-N-[4-(2-furyl)-5-(tetrahydropyran-4-carbonyl)thiazol-2-yl]pyridine-4-carboxamide] | 24% | 92% | –
9 | CC(C)OCc1cc(C(=O)Nc2nc(-c3ccco3)c(C(=O)C3CCOCC3)s2)ccn1 [(IL), N-[4-(2-Furyl)-5-(tetrahydropyran-4-carbonyl)thiazol-2-yl]-2-isopropoxymethylpyridine-4-carboxamide] | 20% | 85% | –
10 | O=C(Nc1nc(-c2ccco2)c(C(=O)C2CCOCC2)s1)c1cnc2occc2c1 [(IM), N-[4-(2-Furyl)-5-(tetrahydropyran-4-carbonyl)thiazol-2-yl]furo[2,3-b]pyridine-5-carboxamide] | 47% | 98% | –
11 | Cc1ccc(C(=O)Nc2nc(-c3ccco3)c(C(=O)C3CCOCC3)s2)cn1 [Compound (IC)] | – | – | duration of anti-parkinsonian activity of L-DOPA ([3]; 1 mg/kg compound co-administered orally with L-DOPA 2.5, 5.0, 7.5 and 10.0 mg/kg): prolonged the anti-parkinsonian activity of L-DOPA; maximum effects of L-DOPA (minimum motor disability score) ([3]; 1 mg/kg compound co-administered orally with L-DOPA 2.5, 5.0, 7.5 and 10.0 mg/kg, versus L-DOPA alone): enhanced maximum effects of L-DOPA alone; action expression time (on-time) ([3]; 1 mg/kg compound plus 10 mg/kg L-DOPA orally, compared to 10 mg/kg L-DOPA alone): increased; inhibition at 0.1 µM [1]: 29%; duration (on-time) of anti-parkinsonian activities of L-DOPA [4]: about 150 min; minimum disability score [4]: 3.83±0.17

Further lines, with some results ahead:

Row | inhibition at 0.1 µM [1, 5] | inhibition at 0.1 µM [2] | Compound | other results
12 | 21% | 93% | O=C(Cc1ccccn1)Nc1nc(-c2ccco2)c(C(=O)C2CCOCC2)s1 [(IN), N-[4-(2-Furyl)-5-(tetrahydropyran-4-carbonyl)thiazol-2-yl]-2-(pyridin-2-yl)acetamide] | –
13 | 56% | 97% | COc1ccc(C(=O)Nc2nc(-c3ccco3)c(C(=O)C3CCOCC3)s2)cn1 [(IO), N-[4-(2-Furyl)-5-(tetrahydropyran-4-carbonyl)thiazol-2-yl]-6-methoxypyridine-3-carboxamide] | –
14 | 18% | 98% | O=C(Nc1nc(-c2ccco2)c(C(=O)C2CCOCC2)s1)c1cnc2ccccc2c1 [(IP), N-[4-(2-Furyl)-5-(tetrahydropyran-4-carbonyl)thiazol-2-yl]quinoline-3-carboxamide] | –
15 | 18% | 100% | Cc1cc(C(=O)Nc2nc(-c3ccco3)c(C(=O)C3CCOCC3)s2)cnc1C [(IQ), N-[4-(2-Furyl)-5-(tetrahydropyran-4-carbonyl)thiazol-2-yl]-5,6-dimethylpyridine-3-carboxamide] | –
16 | 30% | 107% | CCc1cncc(C(=O)Nc2nc(-c3ccco3)c(C(=O)C3CCOCC3)s2)c1 [(IR), 5-Ethyl-N-[4-(2-furyl)-5-(tetrahydropyran-4-carbonyl)thiazol-2-yl]pyridine-3-carboxamide] | –
17 | 10% | 90% | O=C(Nc1nc(-c2ccco2)c(C(=O)C2CCOCC2)s1)c1cnc2c(c1)COCC2 [(IS), N-[4-(2-Furyl)-5-(tetrahydropyran-4-carbonyl)thiazol-2-yl]-7,8-dihydro-5H-pyrano[4,3-b]pyridine-3-carboxamide] | –
18 | 37% | 91% | O=C(Nc1nc(-c2ccco2)c(C(=O)C2CCOCC2)s1)c1cnc2c(c1)CCC2 [(IT), N-[4-(2-Furyl)-5-(tetrahydropyran-4-carbonyl)thiazol-2-yl]-6,7-dihydro-5H-cyclopenta[b]pyridine-3-carboxamide] | –
19 | 36% | 110% | O=C(Nc1nc(-c2ccco2)c(C(=O)C2CCOCC2)s1)c1cc2ccccc2[nH]1 [(IU), N-[4-(2-Furyl)-5-(tetrahydropyran-4-carbonyl)thiazol-2-yl]-1H-indole-2-carboxamide] | –
20 | 23% | 98% | CCc1ccc(C(=O)Nc2nc(-c3ccco3)c(C(=O)C3CCOCC3)s2)cn1 [(IV), 6-Ethyl-N-[4-(2-furyl)-5-(tetrahydropyran-4-carbonyl)thiazol-2-yl]pyridine-3-carboxamide] | –
21 | 23% | 98% | CCCc1ccc(C(=O)Nc2nc(-c3ccco3)c(C(=O)C3CCOCC3)s2)cn1 [(IW), N-[4-(2-Furyl)-5-(tetrahydropyran-4-carbonyl)thiazol-2-yl]-6-propylpyridine-3-carboxamide] | –
22 | 18% | 101% | O=C(Nc1nc(-c2ccco2)c(C(=O)C2CCOCC2)s1)c1cnc2c(c1)CSCC2 [(IX), N-[4-(2-Furyl)-5-(tetrahydropyran-4-carbonyl)thiazol-2-yl]-7,8-dihydro-5H-thiopyrano[4,3-b]pyridine-3-carboxamide] | –
23 | 8% | 97% | CC(=O)c1cc(C(=O)Nc2nc(-c3ccco3)c(C(=O)C3CCOCC3)s2)cnc1C [(IY), 5-Acetyl-N-[4-(2-furyl)-5-(tetrahydropyran-4-carbonyl)thiazol-2-yl]-6-methylpyridine-3-carboxamide] | –
24 | 21% | 102% | CCc1cncc(C(=O)Nc2nc(-c3ccoc3)c(C(=O)C3CCOCC3)s2)c1 [(IZ), 5-Ethyl-N-[4-(3-furyl)-5-(tetrahydropyran-4-carbonyl)thiazol-2-yl]pyridine-3-carboxamide] | –
